{"source": "paper PMC5218480", "about": "(PLoS ONE, 2017)", "tested_on": "MV-4-11 cells", "experiment": "Gene expression microarray analysis (Affymetrix PrimeView) and GSEA", "type": "cell-based, human", "parameters": "RFU PODN (11730768_x_at) / Fold change /veh PODN (11730768_x_at) / RFU LINC00158 (11744669_a_at) / Fold change /veh LINC00158 (11744669_a_at) / RFU DUSP10 (11751237_a_at) / Fold change /veh DUSP10 (11751237_a_at) / RFU ID3 (11757404_x_at) / Fold change /veh ID3 (11757404_x_at) / RFU PLEKHG5 (11737974_s_at) / Fold change /veh PLEKHG5 (11737974_s_at) / RFU LRRC4B (11730491_at) / Fold change /veh LRRC4B (11730491_at) / RFU GIMAP4 (11747438_a_at) / Fold change /veh GIMAP4 (11747438_a_at) / RFU KRT8 (11758183_x_at) / Fold change /veh KRT8 (11758183_x_at) / RFU CNN1 (11734310_a_at) / Fold change /veh CNN1 (11734310_a_at) / RFU VPS37D (11726825_at) / Fold change /veh VPS37D (11726825_at) / RFU C10orf10 (11716522_x_at) / Fold change /veh C10orf10 (11716522_x_at) / RFU KIR2DL2 /// KIR2DL4 /// KIR2DL5A /// KIR2DL5B /// KIR2DS1 /// KIR2DS2 /// KIR2DS3 /// KIR2DS4 /// KIR3DL3 /// KIR3DL3 /// KIR3DS1 (11738374_at) / Fold change /veh KIR2DL2 /// KIR2DL4 /// KIR2DL5A /// KIR2DL5B /// KIR2DS1 /// KIR2DS2 /// KIR2DS3 /// KIR2DS4 /// KIR3DL3 /// KIR3DL3 /// KIR3DS1 (11738374_at) / RFU C1QL1 (11718748_at) / Fold change /veh C1QL1 (11718748_at) / RFU TMPRSS4 (11747572_a_at) / Fold change /veh TMPRSS4 (11747572_a_at) / RFU HAMP (11756126_x_at) / Fold change /veh HAMP (11756126_x_at) / RFU RNFT2 (11725882_a_at) / Fold change /veh RNFT2 (11725882_a_at) / RFU NR4A2 (11747474_a_at) / Fold change /veh NR4A2 (11747474_a_at) / RFU ABCC12 (11746883_a_at) / Fold change /veh ABCC12 (11746883_a_at) / RFU TMEM136 (11760407_x_at) / Fold change /veh TMEM136 (11760407_x_at) / RFU CLDN22 /// WWC2 (11732394_at) / Fold change /veh CLDN22 /// WWC2 (11732394_at) / RFU HLA-DPB1 (11760878_x_at) / Fold change /veh HLA-DPB1 (11760878_x_at) / RFU SPINT1 (11716480_a_at) / Fold change /veh SPINT1 (11716480_a_at) / RFU GAP43 (11754022_s_at) / Fold change /veh GAP43 (11754022_s_at) / RFU A4GNT (11735810_at) / Fold change /veh A4GNT (11735810_at) / RFU PRB3 (11715151_x_at) / Fold change /veh PRB3 (11715151_x_at) / RFU TUBB4B (11761932_at) / Fold change /veh TUBB4B (11761932_at) / RFU CAPN14 (11732068_a_at) / Fold change /veh CAPN14 (11732068_a_at) / RFU TMCC2 (11721928_a_at) / Fold change /veh TMCC2 (11721928_a_at) / RFU IRGQ (11745062_a_at) / Fold change /veh IRGQ (11745062_a_at) / RFU FAM174B (11720279_a_at) / Fold change /veh FAM174B (11720279_a_at) / RFU TMPRSS4 (11748680_a_at) / Fold change /veh TMPRSS4 (11748680_a_at) / RFU FAM212B (11763350_a_at) / Fold change /veh FAM212B (11763350_a_at) / RFU PLEKHG5 (11743358_a_at) / Fold change /veh PLEKHG5 (11743358_a_at) / RFU ZSCAN30 (11745921_a_at) / Fold change /veh ZSCAN30 (11745921_a_at) / RFU CMKLR1 (11741424_a_at) / Fold change /veh CMKLR1 (11741424_a_at) / RFU LOC101060620 /// MAPK8IP1 (11723275_at) / Fold change /veh LOC101060620 /// MAPK8IP1 (11723275_at) / RFU SPTSSB (11747773_x_at) / Fold change /veh SPTSSB (11747773_x_at) / RFU PRSS12 (11739890_at) / Fold change /veh PRSS12 (11739890_at) / RFU BIN1 (11741810_x_at) / Fold change /veh BIN1 (11741810_x_at) / RFU WNT11 (11732464_a_at) / Fold change /veh WNT11 (11732464_a_at) / RFU C10orf10 (11716521_a_at) / Fold change /veh C10orf10 (11716521_a_at) / RFU C5orf56 (11738089_at) / Fold change /veh C5orf56 (11738089_at) / RFU CYB561 (11721691_x_at) / Fold change /veh CYB561 (11721691_x_at) / RFU ANKRD19P (11752326_a_at) / Fold change /veh ANKRD19P (11752326_a_at) / RFU OR2T12 /// OR2T33 /// OR2T8 (11738714_s_at) / Fold change /veh OR2T12 /// OR2T33 /// OR2T8 (11738714_s_at) / RFU VCAN (11748164_a_at) / Fold change /veh VCAN (11748164_a_at) / RFU JSRP1 (11732532_at) / Fold change /veh JSRP1 (11732532_at) / RFU KRTAP10-11 (11738290_x_at) / Fold change /veh KRTAP10-11 (11738290_x_at) / RFU MYO3A (11730013_a_at) / Fold change /veh MYO3A (11730013_a_at) / RFU EBF3 (11725865_a_at) / Fold change /veh EBF3 (11725865_a_at) / RFU CAMK2N1 (11719241_x_at) / Fold change /veh CAMK2N1 (11719241_x_at) / RFU C5orf56 (11738088_a_at) / Fold change /veh C5orf56 (11738088_a_at) / RFU OLFML3 (11715873_a_at) / Fold change /veh OLFML3 (11715873_a_at) / RFU LOC100653217 /// NTM (11731650_a_at) / Fold change /veh LOC100653217 /// NTM (11731650_a_at) / RFU MAPK11 (11762145_a_at) / Fold change /veh MAPK11 (11762145_a_at) / RFU FIZ1 (11724087_x_at) / Fold change /veh FIZ1 (11724087_x_at) / RFU OASL (11726364_x_at) / Fold change /veh OASL (11726364_x_at) / RFU SOX15 (11748057_x_at) / Fold change /veh SOX15 (11748057_x_at) / RFU CD79A (11719716_a_at) / Fold change /veh CD79A (11719716_a_at) / RFU HIST1H1D (11736915_at) / Fold change /veh HIST1H1D (11736915_at) / RFU CASKIN2 (11723855_a_at) / Fold change /veh CASKIN2 (11723855_a_at) / RFU LOC730098 (11760151_x_at) / Fold change /veh LOC730098 (11760151_x_at) / RFU OR4N2 (11742367_at) / Fold change /veh OR4N2 (11742367_at) / RFU PRRT2 (11749266_a_at) / Fold change /veh PRRT2 (11749266_a_at) / RFU SNX32 (11753110_a_at) / Fold change /veh SNX32 (11753110_a_at) / RFU CDHR5 (11726645_a_at) / Fold change /veh CDHR5 (11726645_a_at) / RFU RCAN1 (11760418_a_at) / Fold change /veh RCAN1 (11760418_a_at) / RFU FAM167A (11723789_a_at) / Fold change /veh FAM167A (11723789_a_at) / RFU FAM26E (11764081_at) / Fold change /veh FAM26E (11764081_at) / RFU ISYNA1 (11749810_s_at) / Fold change /veh ISYNA1 (11749810_s_at) / RFU ACY1 (11761880_at) / Fold change /veh ACY1 (11761880_at) / RFU 11764098_at / Fold change /veh 11764098_at / RFU SAMD14 (11745864_x_at) / Fold change /veh SAMD14 (11745864_x_at) / RFU NPB (11741838_a_at) / Fold change /veh NPB (11741838_a_at) / RFU TMPRSS6 (11731388_a_at) / Fold change /veh TMPRSS6 (11731388_a_at) / RFU KRTAP10-2 (11738614_at) / Fold change /veh KRTAP10-2 (11738614_at) / RFU ARHGAP8 /// PRR5-ARHGAP8 (11727945_x_at) / Fold change /veh ARHGAP8 /// PRR5-ARHGAP8 (11727945_x_at) / RFU KRTAP5-7 /// NADSYN1 (11734609_at) / Fold change /veh KRTAP5-7 /// NADSYN1 (11734609_at) / RFU RASL12 (11751679_a_at) / Fold change /veh RASL12 (11751679_a_at) / RFU CDKN2B (11736163_a_at) / Fold change /veh CDKN2B (11736163_a_at) / RFU PRF1 (11729649_at) / Fold change /veh PRF1 (11729649_at) / RFU, ZNF638 /// ZNF638-IT1 / Fold change vs veh, ZNF638 /// ZNF638-IT1 / RFU, PANK3 / Fold change vs veh, PANK3 / RFU, SH3YL1 / Fold change vs veh, SH3YL1 / RFU, ZEB2 / Fold change vs veh, ZEB2 / RFU, NRIP1 / Fold change vs veh, NRIP1 / RFU, PTTG1IP / Fold change vs veh, PTTG1IP / RFU, CAPN2 / Fold change vs veh, CAPN2 / RFU, MED14 / Fold change vs veh, MED14 / RFU, SNORA58 / Fold change vs veh, SNORA58 / RFU, C1orf63 / Fold change vs veh, C1orf63 / RFU, LRRFIP1 / Fold change vs veh, LRRFIP1 / RFU, NDUFAF7 / Fold change vs veh, NDUFAF7 / RFU, SLC12A2 / Fold change vs veh, SLC12A2 / RFU, IBTK / Fold change vs veh, IBTK / RFU, ESF1 / Fold change vs veh, ESF1 / Fold change vs veh, TMEM50B / RFU, TAOK1 / Fold change vs veh, TAOK1 / RFU, ACBD3 / Fold change vs veh, ACBD3 / RFU, TMA16 / Fold change vs veh, TMA16 / RFU, RWDD3 / Fold change vs veh, RWDD3 / RFU, BCAT1 / Fold change vs veh, BCAT1 / RFU, EDEM3 / Fold change vs veh, EDEM3 / RFU, TMEM33 / Fold change vs veh, TMEM33 / RFU, WDR75 / Fold change vs veh, WDR75 / RFU, AHCTF1 / Fold change vs veh, AHCTF1 / RFU, TFRC / Fold change vs veh, TFRC / RFU, ZDHHC17 / Fold change vs veh, ZDHHC17 / RFU, NOM1 / Fold change vs veh, NOM1 / RFU, ARL8B / Fold change vs veh, ARL8B / RFU, ZBTB11 / Fold change vs veh, ZBTB11 / RFU, TAMM41 / Fold change vs veh, TAMM41 / RFU, KIAA1704 /// LOC100996395 / Fold change vs veh, KIAA1704 /// LOC100996395 / RFU, ING1 / Fold change vs veh, ING1 / RFU, TRMT61B / Fold change vs veh, TRMT61B / RFU, FUBP3 / Fold change vs veh, FUBP3 / RFU, TP53 / Fold change vs veh, TP53 / RFU, TNKS2 / Fold change vs veh, TNKS2 / RFU, ZFP14 / Fold change vs veh, ZFP14 / RFU, ACTR2 / Fold change vs veh, ACTR2 / RFU, PPP3R1 / Fold change vs veh, PPP3R1 / RFU, PIK3R1 / Fold change vs veh, PIK3R1 / RFU, HNRNPA1 / Fold change vs veh, HNRNPA1 / RFU, RNF170 / Fold change vs veh, RNF170 / RFU, ZNF28 / Fold change vs veh, ZNF28 / RFU, RNGTT / Fold change vs veh, RNGTT / RFU, OGT / Fold change vs veh, OGT / RFU, BRD1 / Fold change vs veh, BRD1 / RFU, MARS / Fold change vs veh, MARS / RFU, ZNF655 / Fold change vs veh, ZNF655 / RFU, FAHD1 / Fold change vs veh, FAHD1 / RFU, BDP1 / Fold change vs veh, BDP1 / RFU, LRRCC1 / Fold change vs veh, LRRCC1 / RFU, ARID1A / Fold change vs veh, ARID1A / RFU, ZNF146 / Fold change vs veh, ZNF146 / RFU, ZNF330 / Fold change vs veh, ZNF330 / RFU, GPN3 / Fold change vs veh, GPN3 / RFU, C9orf123 / Fold change vs veh, C9orf123 / RFU, N4BP2L2 / Fold change vs veh, N4BP2L2 / RFU, ARFIP1 / Fold change vs veh, ARFIP1 / RFU, FAM179B / Fold change vs veh, FAM179B / RFU, BCL10 / Fold change vs veh, BCL10 / RFU, UHRF1BP1L / Fold change vs veh, UHRF1BP1L / RFU, BET1 / Fold change vs veh, BET1 / RFU, CNOT2 / Fold change vs veh, CNOT2 / RFU, ZNF268 / Fold change vs veh, ZNF268 / Fold change vs veh, ZNF507 / RFU, DGCR2 / Fold change vs veh, DGCR2 / RFU, WDSUB1 / Fold change vs veh, WDSUB1 / Fold change vs veh, HSP90B1 /// MIR3652 / RFU, ADSS / Fold change vs veh, ADSS / RFU, GK / Fold change vs veh, GK / RFU, ZNF148 / Fold change vs veh, ZNF148 / RFU, TAF9 / Fold change vs veh, TAF9 / RFU, SLC1A5 / Fold change vs veh, SLC1A5 / RFU, SLMO2 / Fold change vs veh, SLMO2 / RFU, ABCC4 / Fold change vs veh, ABCC4 / RFU, LOC101060439 /// RAP1B / Fold change vs veh, LOC101060439 /// RAP1B / RFU, RFX7 / Fold change vs veh, RFX7 / RFU, GTPBP10 / Fold change vs veh, GTPBP10 / RFU, CNEP1R1 / Fold change vs veh, CNEP1R1 / RFU, BIVM-ERCC5 /// ERCC5 / Fold change vs veh, BIVM-ERCC5 /// ERCC5 / RFU, ILF3 / Fold change vs veh, ILF3 / RFU 11762660_at / Fold change /veh 11762660_at / RFU VCAN (11757783_s_at) / Fold change /veh VCAN (11757783_s_at) / RFU DDX43 (11728927_at) / Fold change /veh DDX43 (11728927_at) / RFU KRT8 (11758188_x_at) / Fold change /veh KRT8 (11758188_x_at) / RFU NKD1 (11759106_at) / Fold change /veh NKD1 (11759106_at) / RFU SRD5A1 (11742802_a_at) / Fold change /veh SRD5A1 (11742802_a_at) / RFU TPSAB1 /// TPSB2 (11721975_s_at) / Fold change /veh TPSAB1 /// TPSB2 (11721975_s_at) / RFU GSTM3 (11746129_a_at) / Fold change /veh GSTM3 (11746129_a_at) / RFU IL23R (11737362_x_at) / Fold change /veh IL23R (11737362_x_at) / RFU TMEM51 (11727254_a_at) / Fold change /veh TMEM51 (11727254_a_at) / RFU PIWIL2 (11732686_x_at) / Fold change /veh PIWIL2 (11732686_x_at) / RFU ORM1 (11744905_x_at) / Fold change /veh ORM1 (11744905_x_at) / RFU CCDC152 (11743942_at) / Fold change /veh CCDC152 (11743942_at) / RFU ECM1 (11717891_a_at) / Fold change /veh ECM1 (11717891_a_at) / RFU IL23R (11748794_a_at) / Fold change /veh IL23R (11748794_a_at) / RFU TNFAIP8L3 (11732012_x_at) / Fold change /veh TNFAIP8L3 (11732012_x_at) / RFU MBOAT4 (11741988_at) / Fold change /veh MBOAT4 (11741988_at) / RFU 11764193_at / Fold change /veh 11764193_at / RFU TMEM53 (11763286_at) / Fold change /veh TMEM53 (11763286_at) / RFU MAGEB2 (11727129_at) / Fold change /veh MAGEB2 (11727129_at) / RFU TMEM200A (11744735_a_at) / Fold change /veh TMEM200A (11744735_a_at) / RFU CCDC152 (11751479_a_at) / Fold change /veh CCDC152 (11751479_a_at) / RFU FAM211A (11726209_a_at) / Fold change /veh FAM211A (11726209_a_at) / RFU RGS16 (11746705_a_at) / Fold change /veh RGS16 (11746705_a_at) / RFU VCAN (11755009_s_at) / Fold change /veh VCAN (11755009_s_at) / RFU RHOB (11743442_s_at) / Fold change /veh RHOB (11743442_s_at) / RFU RGS16 (11720943_a_at) / Fold change /veh RGS16 (11720943_a_at) / RFU RGS16 (11720944_at) / Fold change /veh RGS16 (11720944_at) / RFU, VPS4B / Fold change vs veh, VPS4B / RFU, CREB1 / Fold change vs veh, CREB1 / RFU, DNAJC13 / Fold change vs veh, DNAJC13 / RFU, GNAQ / Fold change vs veh, GNAQ / RFU, CDK5R1 / Fold change vs veh, CDK5R1 / RFU, ZRANB3 / Fold change vs veh, ZRANB3 / RFU, CUL4A / Fold change vs veh, CUL4A / RFU, CCNY / Fold change vs veh, CCNY / RFU, UFL1 / Fold change vs veh, UFL1 / RFU, COG3 / Fold change vs veh, COG3 / RFU, DIAPH2 / Fold change vs veh, DIAPH2 / RFU, SKA2 / Fold change vs veh, SKA2 / RFU, AFF3 / Fold change vs veh, AFF3 / RFU, LMF1 / Fold change vs veh, LMF1 / RFU, IPO11 / Fold change vs veh, IPO11 / RFU, DFFB / Fold change vs veh, DFFB / RFU, FOXP1 / Fold change vs veh, FOXP1 / RFU, CARD8 / Fold change vs veh, CARD8 / RFU, STRN3 / Fold change vs veh, STRN3 / RFU, ADK / Fold change vs veh, ADK / RFU, RASSF2 / Fold change vs veh, RASSF2 / RFU, WIPF1 / Fold change vs veh, WIPF1 / RFU, LARP1B / Fold change vs veh, LARP1B / RFU, RASA1 / Fold change vs veh, RASA1 / RFU, RB1 / Fold change vs veh, RB1 / RFU, PPFIA1 / Fold change vs veh, PPFIA1 / RFU, MAT2A / Fold change vs veh, MAT2A / RFU, CCT5 / Fold change vs veh, CCT5 / RFU, WDR92 / Fold change vs veh, WDR92 / RFU, CUX1 / Fold change vs veh, CUX1 / RFU, TTC7A / Fold change vs veh, TTC7A / RFU, TMEM135 / Fold change vs veh, TMEM135 / RFU, DEPTOR / Fold change vs veh, DEPTOR / RFU, CPM / Fold change vs veh, CPM / RFU, DNAJB6 / Fold change vs veh, DNAJB6 / RFU, CACNA2D3 / Fold change vs veh, CACNA2D3 / RFU, DTX4 / Fold change vs veh, DTX4 / RFU, TFCP2 / Fold change vs veh, TFCP2 / RFU, GMCL1 /// GMCL1P1 / Fold change vs veh, GMCL1 /// GMCL1P1 / RFU, AEBP2 / Fold change vs veh, AEBP2 / RFU, SNHG1 /// SNORD22 /// SNORD25 /// SNORD26 /// SNORD27 /// SNORD28 /// SNORD29 /// SNORD31 / Fold change vs veh, SNHG1 /// SNORD22 /// SNORD25 /// SNORD26 /// SNORD27 /// SNORD28 /// SNORD29 /// SNORD31 / Fold change (Aza/veh), C12orf56 (ProbeSet 11735607_a_at) / Fold change (ACY-1035/veh), C12orf56 (ProbeSet 11735607_a_at) / Fold change (Aza/veh), FGFR1OP (ProbeSet 11751329_s_at) / Fold change (ACY-1035/veh), FGFR1OP (ProbeSet 11751329_s_at) / Fold change (Aza/veh), VPS36 (ProbeSet 11739960_a_at) / Fold change (ACY-1035/veh), VPS36 (ProbeSet 11739960_a_at) / RFU SYPL1 (11715823_x_at) / Fold change /veh SYPL1 (11715823_x_at) / RFU IGFBP7 (11715501_s_at) / Fold change /veh IGFBP7 (11715501_s_at) / RFU REEP3 (11722064_at) / Fold change /veh REEP3 (11722064_at) / RFU IGLL1 (11728026_x_at) / Fold change /veh IGLL1 (11728026_x_at): dose or concentration left out as unconfirmed", "details": "MV-4-11 cells, 48 hours"}
{"compound": "Nc1ncn([C@@H]2O[C@H](CO)[C@@H](O)[C@H]2O)c(=O)n1", "note": "[azacitidine]", "values": [{"measurement": "RFU 11764193_at", "value": 40.50, "unit": "RFU"}]}
